The test system of experiment [1] is MOLM-13 cell line. Briefly: MOLM-13 cell proliferation assay (alamarBlue). The format is cell-based. As to conditions: Homo sapiens; MOLM-13 cells, 96 hours incubation, inhibition of cell proliferation. As to the method: In accordance with the invention, the substances were tested for their ability to inhibit the proliferation of the MOLM-13 cell linie (Deutsche Sammlung far Mikroorganismen and Zellkulturen [German Collection of Microorganisms and Cell Cultures], ACC 554). Cell viability was determined by means of the alamarBlue® reagent (Invitrogen) in a Victor X3 Multilabel Reader (Perkin Elmer). The excitation wavelength was 530 nm and the emission wavelength […].
The MOLM-13 cells were shown at a density of 4000 cells/well in 100 μl of growth medium on 96-well microtitre plates. After overnight incubation at 37° C., the fluorescence values (CI values) were determined. The plates were then treated with various substance dilutions and incubated at 37° C. for 96 hours. Subsequently, the fluorescence values were determined (CO values). For the data analysis, the CI values were subtracted from the CO values and the results were compared between cells which had been treated with various dilutions of the substance or only with buffer solution. The IC50 values (substance concentration needed for 50% inhibition of cell proliferation) were calculated therefrom.

Experiment [2] addresses T1, BRD4 bromo domain 1 [BRD4(1)] (Homo sapiens, UniProt O60885).
T1 construct: N-terminally His6-tagged BRD4(1) (amino acids 67-152); made in house; host or cells: E. coli
Briefly: BRD4(1)/acetylated peptide H4 binding assay (TR-FRET). As to conditions: inhibition of interaction between BRD4(1) and acetylated histone H4 peptide. The source says:
To assess the BRD4(1) binding strength of the substances described in this application, the ability thereof to inhibit the interaction between BRD4(1) and acetylated histone H4 in a dose-dependent manner was quantified.
For this purpose, a time-resolved fluorescence resonance energy transfer (TR-FRET) assay was used, which measures the binding between N-terminally His6-tagged BRD4(1) (amino acids 67-152) and a synthetic acetylated histone H4 (Ac-H4) peptide with sequence GRGK(Ac)GGK(Ac)GLGK(Ac)GGAK(Ac)RHGSGSK-biotin. The recombinant BRD4(1) protein produced in-house according to Filippakopoulos et al., Cell, 2012, 149:214-231 was expressed in E. coli and purified by means of (Ni-NTA) affinity and (Sephadex G-75) size exclusion chromatography. The Ac-H4 peptide can be purchased, for example, from Biosyntan (Berlin, Germany).
In the assay, typically 11 different concentrations of each substance (0.1 nM, 0.33 nM, 1.1 nM, 3.8 nM, 13 nM, 44 nM, 0.15 μM, 0.51 μM, 1.7 μM, 5.9 μM and 20 μM) were analysed as duplicates on the same microtitre plate. For this purpose, 100-fold concentrated solutions in DMSO were prepared by serial dilutions (1:3.4) of a 2 mM stock solution into a clear, 384-well microtitre plate (Greiner Bio-One, Frickenhausen, Germany). From this, 50 n1 were transferred into a black test plate (Greiner Bio-One, Frickenhausen, Germany). The test was started by the addition of 2 μl of a 2.5-fold concentrated BRD4(1) solution (final concentration typically 10 nM in the 5 μl of reaction volume) in aqueous assay buffer [50 mM HEPES pH 7.5, 50 mM sodium chloride (NaCl), 0.25 mM CHAPS and 0.05% serum albumin (BSA)] to the substances in the test plate. This was followed by a 10-minute incubation step at 22° C. for the pre-equilibration of putative complexes between BRD4(1) and the substances.
The mixture was then incubated in the dark at 22° C. for one hour and then at 4° C. for at least 3 hours and for no longer than overnight. The formation of BRD4(1)/Ac-H4 complexes was determined by the measurement of the resonance energy transfer from the streptavidin-Eu cryptate to the anti-6His-XL665 antibody present in the reaction. For this purpose, the fluorescence emission was measured at 620 nm and 665 nm after excitation at 330-350 nm in a TR-FRET measuring instrument, for example a Rubystar or Pherastar (both from BMG Lab Technologies, Offenburg, Germany) or a Viewlux (Perkin-Elmer). The ratio of the emissions at 665 nm and at 622 nm was taken as an indicator of the amount of BRD4(1)/Ac-H4 complexes formed.
The data (ratios) obtained were normalized, with 0% inhibition corresponding to the mean from the measurements for a set of controls (typically 32 data points) in which all the reagents were present. In these, in place of test substances, 50 nl of DMSO (100%) were used Inhibition of 100% corresponded to the mean from the measurements for a set of controls (typically 32 data points) in which all the reagents except BRD4(1) were present. The IC50 was determined by regression analysis based on a 4-parameter equation (minimum, maximum, IC50, Hill; Y=Max+(Min−Max)/(1+(X/IC50)Hill).
Background: In TR-FRET formats the signal depends on donor and acceptor labels being close together.

Experiment [3] has as its target T2, Plk-1 (Homo sapiens, UniProt P53350).
T2 construct: Recombinant fusion protein consisting of GST and Plk (kinase domain 33-345); MW 36 kDa; GST; made in house; host or cells: insect cells (Hi5)
The experiment can be described thus: Plk-1 enzyme assay (indirect HTRF kinase assay). In kind it is biochemical. As to the method:
Recombinant fusion protein consisting of GST and Plk (kinase domain 33-345; MW 36 kDa, conc 0.8 μg/μl) expressed from insect cells (Hi5) and purified by glutathione Sepharose affinity chromatography and subsequent gel filtration (Superdex 75) is used for the kinase assay. Aliquots thereof are frozen in liquid nitrogen and stored at −80° C. and, after thawing, used only once.
The assay used is an indirect HTRF assay which employs the following materials and procedures. The substrate used for the kinase reaction is the biotinylated peptide Btn-Ahx-KKLNRTLSFAEPG-amide x TFA from Biosyntan, Sample No.: 6178.1 (C-terminus in amide form). This is an artificial sequence not derived from any known protein. 50 nl of the test compounds dissolved in 100% dimethyl sulphoxide (DMSO) (final concentrations: 0 μM and concentrations in the range of 0.001-20 μM) are pre-incubated with 2 μl Plk-1 enzyme working solution in working buffer [25 mM MgCl2; 1 mM DTT; 50 mM Hepes pH 7.0; 0.01% NP40; 1× Complete; 0.05% BSA] for 30 min. The kinase reaction is then initiated by addition of 3 μl of substrate solution [adenosine triphosphate (ATP) and 1.4 μM substrate peptide (biotin-Ttds-KKLNRTLSFAEPG-NH2)] in working buffer, and, after 30 min, stopped by addition of a stopper solution (100 mM EDTA, 100 mM Hepes pH 7.5, 800 mM potassium fluoride, 0.12% BSA, 0.4 μM SA-XLent (0.05 μM, from CIS bio international, Marcoule, France), Eu^3+ cryptate-conjugated rabbit anti-mouse IgG (1.5 nM; an anti-mouse IgG antibody labelled with europium cryptate from CIS bio international, Marcoule, France), 1 nM anti-phospho-serine kinase (a phospho-specific antibody from Upstate Biotechnology, Dundee, Scotland), and incubated at 4° C. overnight.
For the test at low ATP concentration, a 1.25 ng/μl Plk-1 working solution and 16.7 μM ATP are used, for the test at high ATP concentration, a 0.039 ng/μl Plk-1 working solution and 16.7 mM ATP are used.
The amount of phosphorylated substrate peptide is then determined by measuring the resonance energy transfer from europium-labelled antibody complex to streptavidine-XLent. To this end, the fluorescence emission at 620 nm and 665 nm is measured following excitation at 350 nm in an HTRF measuring instrument, e.g. Rubystar (BMG Labtechnologies, Offenburg, Germany) or Viewlux (Perkin-Elmer). The ratio of the emissions at 665 nm and at 620 nm is taken as a measure of the amount of phosphorylated substrate peptide. The data are normalized (enzyme reaction without inhibitor=0% inhibition, all other assay components, but no enzyme=100% inhibition), and IC50 values are calculated using a 4 parameter equation (minimum, maximum, IC50, Hill; Y=max+(min−max)/(1+(X/IC50)Hill)).

Setting [4] is: 10 μM ATP (low ATP concentration), read-out: IC50 [Plk-1] (10 μM ATP).
Setting [5] is: 10 mM ATP (high ATP concentration), read-out: IC50 [Plk-1] (10 mM ATP).

Read-outs that look alike come from different tables or passages of the source.

T2 sequence (P53350 33-345): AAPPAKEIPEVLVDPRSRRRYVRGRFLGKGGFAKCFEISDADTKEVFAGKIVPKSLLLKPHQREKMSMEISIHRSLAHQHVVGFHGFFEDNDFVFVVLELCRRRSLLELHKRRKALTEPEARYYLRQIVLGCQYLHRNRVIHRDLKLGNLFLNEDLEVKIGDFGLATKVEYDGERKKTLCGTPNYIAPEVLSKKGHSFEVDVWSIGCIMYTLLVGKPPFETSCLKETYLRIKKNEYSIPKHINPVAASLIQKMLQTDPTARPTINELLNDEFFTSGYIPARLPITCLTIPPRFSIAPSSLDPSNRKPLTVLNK

Consider `CC[C@@H]1C(=O)N(C)c2cnc(Nc3ncc(C(=O)NC4CCN(C)CC4)cc3OC)cc2N1C1CCCC1` [Example 14, 6-[[(2R)-1-Cyclopentyl-2-ethyl-1,2,3,4-tetrahydro-4-methyl-3-oxopyrido[3,4-b]pyrazin-7-yl]amino]-5-methoxy-N-(1-methyl-4-piperidinyl)-3-pyridinecarboxamide], for which the IC50 (in general, the midpoint of a concentration-inhibition curve) in experiment [1] stood at 0.032 µM; in experiment [2] it was 0.458 µM; in experiment [3] (setting [4]), 0.011 µM; in experiment [3] (setting [5]) it was 0.029 µM.

Regarding `CC[C@@H]1C(=O)N(C)c2cnc(Nc3ncc(C(=O)NC4CC4)cc3C)cc2N1C1CCCC1` [Example 13, 6-{[(2R)-1-Cyclopentyl-2-ethyl-4-methyl-3-oxo-1,2,3,4-tetrahydropyrido[3,4-b]pyrazin-7-yl]amino}-N-cyclopropyl-5-methylpyridine-3-carboxamide], the IC50 is 0.056 µM in experiment [1], 0.434 µM in experiment [2], 0.007 µM in experiment [3] (setting [4]) and 0.015 µM in experiment [3] (setting [5]).

Consider `CC[C@@H]1C(=O)N(C)c2cnc(Nc3ncc(C(=O)NCCOC)cc3OC)cc2N1C1CCCC1` [Example 8, 6-[[(2R)-1-Cyclopentyl-2-ethyl-1,2,3,4-tetrahydro-4-methyl-3-oxopyrido[3,4-b]pyrazin-7-yl]amino]-5-methoxy-N-(2-methoxyethyl)-3-pyridinecarboxamide], for which the concentration for half-maximal inhibition (IC50) in experiment [1] came to 0.072 µM; in experiment [2], 0.333 µM; in experiment [3] (setting [4]), 0.009 µM; in experiment [3] (setting [5]) it was 0.022 µM.

As for `CC[C@@H]1C(=O)N(C)c2cnc(Nc3ncc(C(=O)N[C@@H]4CCCCNC4=O)cc3C)cc2N1C1CCCC1` [Example 15], the 50% inhibitory concentration (IC50) in experiment [1] came to 0.077 µM; in experiment [2], 0.496 µM; in experiment [3] (setting [4]), 0.013 µM; in experiment [3] (setting [5]) it was 0.022 µM.

With `CC[C@@H]1C(=O)N(C)c2cnc(Nc3ncc(C(=O)NC4CCN(C)CC4)cc3C)cc2N1C1CCCC1` [Example 18, 6-[[(2R)-1-Cyclopentyl-2-ethyl-1,2,3,4-tetrahydro-4-methyl-3-oxopyrido[3,4-b]pyrazin-7-yl]amino]-5-methyl-N-(1-methyl-4-piperidinyl)pyridine-3-carboxamide], the IC50 in experiment [1] came to 0.042 µM; in experiment [2] it was 0.649 µM; in experiment [3] (setting [5]) it was 0.007 µM.

Regarding `CC[C@@H]1C(=O)N(C)c2cnc(Nc3ncc(C(=O)NC4CCOCC4)cc3OC)cc2N1C1CCCC1` [Example 10, 6-[[(2R)-1-Cyclopentyl-2-ethyl-1,2,3,4-tetrahydro-4-methyl-3-oxopyrido[3,4-b]pyrazin-7-yl]amino]-5-methoxy-N-(tetrahydro-2H-pyran-4-yl)-3-pyridinecarboxamide], the half-maximal inhibitory concentration (IC50) amounted to 0.043 µM in experiment [1], 0.376 µM in experiment [2] and 0.031 µM in experiment [3] (setting [5]).

On to `CC[C@@H]1C(=O)N(C)c2cnc(Nc3ncc(C(=O)NCc4cccnc4)cc3OC)cc2N1C1CCCC1` [Example 12, 6-[[(2R)-1-Cyclopentyl-2-ethyl-1,2,3,4-tetrahydro-4-methyl-3-oxopyrido[3,4-b]pyrazin-7-yl]amino]-5-methoxy-N-(3-pyridinylmethyl)-3-pyridinecarboxamide], for which the values for the concentration for half-maximal inhibition (IC50) in experiment [1], in experiment [2] and in experiment [3] (setting [5]) were 0.052 µM, 0.424 µM and 0.023 µM, respectively.

For the molecule `CCc1cc(C(=O)N[C@@H]2CCCCNC2=O)cnc1Nc1cc2c(cn1)N(C)C(=O)[C@@H](CC)N2C1CCCC1` [Example 9, 6-{[(2R)-1-Cyclopentyl-2-ethyl-4-methyl-3-oxo-1,2,3,4-tetrahydropyrido[3,4-b]pyrazin-7-yl]amino}-5-ethyl-N-[(3R)-2-oxoazepan-3-yl]pyridine-3-carboxamide], the IC50 in experiment [1] came out at 0.076 µM; in experiment [2] it was 0.343 µM; in experiment [3] (setting [5]) it was 0.017 µM.

Take `CC[C@@H]1C(=O)N(C)c2cnc(Nc3ncc(C(=O)N[C@@H]4CCCCNC4=O)cc3OC)cc2N1C1CCCC1` [Example 16, 6-[[(2R)-1-Cyclopentyl-2-ethyl-1,2,3,4-tetrahydro-4-methyl-3-oxopyrido[3,4-b]pyrazin-7-yl]amino]-N-[(3R)-hexahydro-2-oxo-1H-azepin-3-yl]-5-methoxy-3-pyridinecarboxamide]: the IC50 in experiment [1] was 0.077 µM; in experiment [2] it was 0.525 µM; in experiment [3] (setting [5]), 0.022 µM.

With `CC[C@@H]1C(=O)N(C)c2cnc(Nc3ncc(C4=NC(C)(C)CO4)cc3OC)cc2N1C1CCCC1` [Example 19, 1N-Cyclopentyl-7-[[5-(4,5-dihydro-4,4-dimethyl-2-oxazolyl)-3-methoxy-2-pyridinyl]amino]-(2R)-ethyl-4N-methyl-1,4-dihydropyrido[3,4-b]pyrazin-3(2H)-one], the values for the IC50 in experiment [1], in experiment [2] and in experiment [3] (setting [5]) were 0.362 µM, 0.732 µM and 0.099 µM, respectively.

The values are drawn from patent US20160272635A1, “SUBSTITUTED DIHYDROPYRIDO[3,4-B]PYRAZINONES AS DUAL INHIBITORS OF BET PROTEINS AND POLO-LIKE KINASES” (BAYER PHARMA AKTIENGESELLSCHAFT, priority 2013, published 2016).
